# According to patent publication US9896659B2, “Methods, kits, and compositions for stem cell self-renewal” (STOWERS INSTITUTE FOR MEDICAL RESEARCH, priority 2011, dated 2018):
# Entries after “also recorded” stand apart in the source; their conditions may differ.
# Columns and labels:
# [1] = system: lethally irradiated recipients; assay: Limiting-dilution competitive repopulating unit (CRU) assay; format: in vivo, mouse; details: CHIR99021 versus ST media (2/0.4)
# Description: FIGS. 27A-C show ex vivo expansion of normal, long-term repopulating HSC. MNCs containing a known quantity of LSK Flk2^− cells were cultured for 14 days with and without CHIR99021. The cultured progeny of MNCs containing a pre-culture dosage of 0.1, 0.3 or 1.0 LSK Flk2^− cells were transplanted into lethally irradiated recipients along with 1×10^5 rescue/competitor cells (n=10 for each of 6 groups). Peripheral blood was analyzed at 16 weeks post-transplant and competitive repopulating unit (CRU) frequency was determined using L-Calc software (Stem Cell Technologies, Inc.) based on Poisson statistics (Zhang, C. C. & Lodish, H. F. Murine hematopoietic stem cells change their surface phenotype during ex vivo expansion. Blood, Vol. 105, pages 4314-4320 (2005); Miller, C. L. & Eaves, C. J. Expansion in vitro of adult murine hematopoietic stem cells with transplantable lympho-myeloid reconstituting ability. Proceedings of the National Academy of Sciences of the United States of America, Vol. 94, pages 13648-13653 (1997)). […] Peripheral blood was analyzed for percent donor repopulation at 16 weeks post-1°, 2°, and 3° transplant (upper panels) and percent mature donor-derived B, T and myeloid cells (lower panels). […]
# [2] = system: lethally irradiated CD45.1 recipient mice; assay: Competitive repopulation assay of 14-day cultures; format: in vivo, mouse; details: for Average repopulation: long-term engraftment (FIGS. 5 and 13)
# Description: For the experimental results shown in FIG. 13A, sorted LSK Flk2^− cells and unsorted MNCs containing a known quantity of LSK Flk2^− cells (CD45.2^+) were cultured for 14 days in ST media with and without CHIR99021. The cultured product of 100 sorted or 5 unsorted LSK Flk2^− cells per mouse were transplanted into lethally irradiated recipients (CD45.1^+). 5 freshly isolated, unsorted LSK Flk2^− cells per mouse were transplanted into a separate group. 1×10^5 freshly isolated CD45.1^+ competitor/radioprotective cells were also added per mouse. Peripheral blood analysis of recipients at 16 weeks post-transplant depicts % chimerism.
# (§1) Bone marrow mononuclear cells (MNCs) were fractionated and the concentration of lineage marker negative, Sca-1^+, c-Kit^+, Flk2^− (LSKF^−) cells was determined. MNCs containing a known quantity of LSKF^− cells were cultured for 14 days in media containing SCF and Tpo (ST), ST media with 250 nM CHIR99021 or ST media with 2 mM lithium chloride (LiCl) as indicated. After 14 days, the cellular product of these cultures was transplanted into lethally-irradiated recipients (10 Gray units) at a dosage corresponding to an original input into culture of MNCs containing 5 LSKF^− cells per mouse for each group. 1×10^5 competitor bone marrow cells congenic with the hosts (CD45.1^+) were included per mouse. At 4 weeks post-transplant, peripheral blood was collected from each transplant recipient, and donor vs. host derived hematopoietic cells were determined by FACS analysis.
# as §1, with “At 16” for “At 4”
# Cells were incubated at 37° C. with 5% CO2 and 5% O2 (balance N2) for 14 days. […]
compound,measurement,setting,value
Cc1c[nH]c(-c2cnc(NCCNc3ccc(C#N)cn3)nc2-c2ccc(Cl)cc2Cl)n1 [CHIR99021],Increase of CRU frequency,[1],5 fold
same,Repopulation capacity of ex vivo expanded HSCs,"[2]; 4 weeks post-transplant, 250 nM CHIR99021 or 2 mM LiCl in ST media, 14 days",enhance repopulation capacity of ex vivo expanded hematopoietic stem cells
same,Long-term repopulation / engraftment of ex vivo expanded HSCs,"[2]; 16 weeks post-transplant, 250 nM CHIR99021 or 2 mM LiCl in ST media, 14 days",enhance long-term repopulation capacity of ex vivo expanded hematopoietic stem cells; also recorded: enhances long-term engraftment of ex vivo expanded HSCs
same,Average repopulation,[2]; 100 sorted putative HSCs cultured 14 days,12.3%
same,Average repopulation,"[2]; unsorted MNC cultures, 14 days",64.8%
